Results on 20 compounds are retold here after ChEMBL document CHEMBL5338745, “Factor XIa Inhibitors in Anticoagulation Therapy: Recent Advances and Perspectives” (J Med Chem, 2023).

The target of data set [1] is T1, Coagulation factor XI (Homo sapiens, UniProt P03951). Description: Inhibition of FXIa (unknown origin).
The nature of data set [2]: in vivo. Conditions: rhesus monkey, iv, 3 mg/kg.
Data set [3] is described as follows: in vivo. The following applies: rat, iv, 0.3 mg/kg.
Another data set addresses Plasma kallikrein (Homo sapiens, UniProt P03952).
Data set [4] relates to Plasma. Description: Anticoagulant activity in human plasma assessed as concentration required to 1.5 times activation of partial thromboplastin time. In kind it is functional.
Data set [5] in a line: Clearance in Sprague-Dawley rat at 1 mg/kg, iv. The following applies: in vivo. The data set is classed as ADME, organism-based.
The test system of data set [6] is Plasma. Description: Anticoagulant activity in human plasma assessed as concentration required to double the activated partial thromboplastin time. In kind it is functional.
Data set [7] deals with T1, Coagulation factor XI. Description: Inhibition of human FXIa by absorbance based analysis.
Data set [8] can be described thus: Half life in Sprague-Dawley rat at 1 mg/kg, iv. The data set is classed as ADME, organism-based. Conditions: in vivo.
Data set [9] can be described thus: Selectivity index, ratio IC50 for FXIa (unknown origin) to IC50 for FD (unknown origin).
Data set [10] in a line: Half life in mouse. In kind it is ADME, organism-based. The following applies: in vivo.
Data set [11] relates to Plasma. Description: Anticoagulant activity in human plasma assessed as concentration required to double the prothrombin time. The data set is classed as functional.
Data set [12] addresses T1, Coagulation factor XI. Description: Inhibition of FXIa (unknown origin) relative to control. The following applies: concentration not given here.

Chain of Plasma kallikrein (P03952 20-390 limits assumed): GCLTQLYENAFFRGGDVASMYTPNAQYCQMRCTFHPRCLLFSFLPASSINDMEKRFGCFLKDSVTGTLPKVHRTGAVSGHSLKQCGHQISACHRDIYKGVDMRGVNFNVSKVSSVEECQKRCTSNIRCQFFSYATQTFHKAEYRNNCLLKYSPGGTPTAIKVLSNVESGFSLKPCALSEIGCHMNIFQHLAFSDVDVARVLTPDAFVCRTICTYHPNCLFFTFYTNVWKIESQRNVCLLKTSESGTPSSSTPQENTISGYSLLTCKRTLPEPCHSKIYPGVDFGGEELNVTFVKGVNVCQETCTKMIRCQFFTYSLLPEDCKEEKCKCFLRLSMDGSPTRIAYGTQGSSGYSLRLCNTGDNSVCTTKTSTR
Chain of Plasma kallikrein (P03952 391-638 limits assumed): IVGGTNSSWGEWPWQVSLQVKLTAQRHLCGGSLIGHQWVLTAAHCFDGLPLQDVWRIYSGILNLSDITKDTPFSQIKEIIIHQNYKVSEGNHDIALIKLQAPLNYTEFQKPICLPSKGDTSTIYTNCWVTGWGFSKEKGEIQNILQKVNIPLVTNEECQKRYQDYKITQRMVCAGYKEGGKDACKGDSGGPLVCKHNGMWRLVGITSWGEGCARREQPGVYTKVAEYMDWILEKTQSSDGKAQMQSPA
T1 sequence (P03951 19-387 limits assumed): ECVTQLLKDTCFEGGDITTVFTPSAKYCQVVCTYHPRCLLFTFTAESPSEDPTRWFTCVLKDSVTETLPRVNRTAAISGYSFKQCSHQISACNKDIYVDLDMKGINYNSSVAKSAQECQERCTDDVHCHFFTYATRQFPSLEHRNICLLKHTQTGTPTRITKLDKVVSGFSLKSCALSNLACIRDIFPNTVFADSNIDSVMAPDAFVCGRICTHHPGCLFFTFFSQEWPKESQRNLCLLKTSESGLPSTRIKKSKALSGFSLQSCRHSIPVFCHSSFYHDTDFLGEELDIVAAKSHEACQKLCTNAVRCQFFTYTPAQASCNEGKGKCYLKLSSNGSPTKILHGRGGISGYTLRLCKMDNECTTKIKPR
T1 sequence (P03951 388-625 limits assumed): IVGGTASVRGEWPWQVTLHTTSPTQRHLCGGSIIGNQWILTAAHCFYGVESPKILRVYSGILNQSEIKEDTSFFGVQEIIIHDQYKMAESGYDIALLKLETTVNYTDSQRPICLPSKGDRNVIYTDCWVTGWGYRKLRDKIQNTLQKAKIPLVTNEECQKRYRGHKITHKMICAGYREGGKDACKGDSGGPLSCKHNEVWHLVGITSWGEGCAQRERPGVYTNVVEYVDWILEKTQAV

As for `O=C(OC[C@H]1O[C@@H](OC(=O)c2cc(OS(=O)(=O)O)cc(OS(=O)(=O)O)c2)[C@H](OC(=O)c2cc(OS(=O)(=O)O)cc(OS(=O)(=O)O)c2)[C@@H](OC(=O)c2cc(OS(=O)(=O)O)cc(OS(=O)(=O)O)c2)[C@@H]1OC(=O)c1cc(OS(=O)(=O)O)cc(OS(=O)(=O)O)c1)c1cc(OS(=O)(=O)O)cc(OS(=O)(=O)O)c1`, on Coagulation factor XI [1], the half-inhibitory concentration (IC50) worked out at 1400 nM. Consider `CC[C@@H](C(=O)Nc1ccc(C(N)=O)c(F)c1)n1cc(OC)c(-c2cc(Cl)ccc2-n2cc(Cl)nn2)cc1=O`, for which the clearance in “in vivo [2]” was 5.5 mL/min/kg; in the data set “in vivo [3]”, 13.3 mL/min/kg. For the compound `C[C@@H]1CCC[C@H](n2cnc(-c3cc(Cl)ccc3-n3cnnn3)cc2=O)c2cc(c3c(n2)OCCO3)-c2c(cnn2C)NC1=O`, half-maximal inhibition against Coagulation factor XI [1] (IC50) required 10.4 nM. In turn, `CC[C@@H](NC(=O)N1C(=O)[C@H](Cc2ccnc(N)c2)[C@H]1C(=O)O)c1ccccc1` returned a half-inhibitory concentration (IC50) on Coagulation factor XI [1] of less than 10 nM.

Regarding `O=C(O)c1ccc(NC(=O)[C@H](CC2=CC=CCC2)n2ccc(-c3cc(Cl)ccc3-n3cnnn3)cc2=O)cc1`, on Coagulation factor XI [1], the inhibition constant (Ki) amounted to 6 nM. Turning to `O=C(O)c1ccc(NC(=O)[C@H](Cc2ccccc2)n2cnc(-c3cc(Cl)ccc3-n3cc(Cl)nn3)cc2=O)cc1`, the 50% inhibitory concentration (IC50) against Plasma kallikrein was 189 nM; on Coagulation factor XI [1] it was 2.5 nM. Turning to `Nc1ccc(-c2cnc(Cn3c4c(c(-c5cc(Cl)ccc5-n5cnnn5)cc3=O)OCC4)[nH]2)c(F)n1`, the IC50 against Coagulation factor XI [1] came out at 1.6 nM.

`C[C@@H]1CCC[C@H](n2cnc(-c3cc(Cl)ccc3-n3cc(Cl)nn3)cc2=O)c2cc(ccn2)-c2c(cnn2C(F)F)NC1=O` [MILVEXIAN]: the EC in the data set on Plasma [4] was found to be 0.5 µM. For the compound `O=C(O)c1ccc(NC(=O)[C@H](Cc2ccccc2)N2CCC(c3cc(Cl)ccc3-n3cc(Cl)nn3)=CC2=O)cc1`, the IC50 against Coagulation factor XI [1] came to 1.73 nM. `Nc1ccc(-c2nc([C@H]3CCc4cc(-c5cc(Cl)ccc5-n5cnnn5)cc(=O)n43)c(F)[nH]2)c(F)n1` [ONO-7684] had an inhibition constant Ki at Coagulation factor XI [1] of 2 nM. In turn, `COc1cn(C(Cc2ccccc2)c2nc3cc(C(=O)O)ccc3[nH]2)c(=O)cc1-c1cc(Cl)ccc1-n1cnnn1` (stereo not given) showed a half-maximal inhibitory concentration (IC50) on Coagulation factor XI [1] of 3 nM. As to `C[C@H]1COc2cn([C@@H](CC3CCCCO3)C(=O)Nc3ccc(C(N)=O)cc3)c(=O)cc2-c2c(ccc(Cl)c2F)C1` (stereo not given in full), the half-inhibitory concentration (IC50) came to 60 nM against Plasma kallikrein and 1.7 nM at Coagulation factor XI [1]. Consider `O=C(O)c1cc2cc(NC(=O)[C@H](Cc3ccc(N4CCN(C5CCC(O)CC5)CC4=O)cc3)N3CCN(c4cc(Cl)ccc4-n4cnnn4)C(=O)C3=O)ccc2[nH]1` (stereo not given in full), for which, in [5], the clearance is 33.3 mL/min/kg. Further, the EC in the data set with Plasma [6] amounted to 1.1 µM. This compound came in with an IC50 against Coagulation factor XI [7] of 1.75 nM. The compound also had a half-life in data set [8] of 0.46 h. `O=C(O)c1cc2cc(NC(=O)[C@@H]3CCc4cc(-c5cc(Cl)ccc5-n5cnnn5)cc(=O)n43)ccc2[nH]1` gave an IC50 on Coagulation factor XI [1] of 6.4 nM. With `CC(C)c1cc(CCN2CCc3cccc(C(=O)O)c32)cc(-c2ccc3c(c2)[C@H](N)CO3)c1`, the Ratio IC50 in data set [9] worked out at 700. Also, the half-life in data set [10] was 9 h.

As for `CC(C)c1cc(COc2ccccc2CC(=O)O)cc(-c2ccc3c(c2)[C@H](N)CO3)c1`, the EC with Plasma [6] stood at 2.2 µM; in the data set with Plasma [11] it was 9.9 µM. Take `Nc1ccc(-c2cnc([C@H](CC3CC3)c3ccc(-c4cc(Cl)ccc4-n4cnnn4)c[n+]3[O-])[nH]2)c(Cl)n1`: the IC50 on Plasma kallikrein turned out to be 80 nM; at Coagulation factor XI [1] it was 0.32 nM. On Coagulation factor XI [1], `Nc1ccc(-c2[nH]c(Cn3c4c(c(-c5cc(Cl)ccc5-n5cnnn5)cc3=O)C(=O)CC4)nc2F)c(F)n1` displayed an IC50 of 0.32 nM. Turning to `Cc1ccc(C(=O)Nc2ccc(CP(=O)(O)O)cc2CP(=O)(O)O)cc1NC(=O)c1cccc(NC(=O)Nc2cccc(C(=O)Nc3cc(C(=O)Nc4ccc(CP(=O)(O)O)cc4CP(=O)(O)O)ccc3C)c2)c1`, the inhibition at Coagulation factor XI [12] was found to be 68%. `CC[C@@H](C(=O)Nc1ccc(C(N)=O)c(F)c1)n1cc(OC)c(-c2cc(Cl)ccc2-n2cc(C(F)(F)F)nn2)cc1=O`: the clearance in “in vivo [2]” was 2 mL/min/kg; in the data set “in vivo [3]”, 13.8 mL/min/kg.
